Experimental data: patent publication US5466687A, “Arylidene-1-azacycloalkanes and arylalkyl-1-azacyclo-alkanes, their salts, medicaments containing these compounds and their use, and processes for their preparation” (priority 1992, dated 1995)
Converted amounts (≈) assume the structure as drawn. Where two headings read alike, the source gives them in different places.

What was measured:
[1] = cited from earlier work
[2] = J. Biol. Chemistry 265, 18075-18078 [1990]; cited from earlier work
[3] = tested on: Sacc. carlsbergensis ATCC 9080; experiment: Fungistatic activity, serial dilution test; type: cell-based; settings: Saccharomyces pastorianus, ATCC9080, 2 to 4 days at 26° C.
Protocol: (§1) VI. Determination of fungistatic activity The fungistatic activity was determined by means of the serial dilution test (microtitre system). Sabouraud broth was used as the nutrient medium. The inoculum was approximately 10^4 to 10^5 CFU/ml (CFU=colony-forming units); the incubation time was 2 to 4 days at 26° C. The minimum inhibitory concentration (MIC), i.e. the lowest concentration which no longer allowed visible growth, and the lowest concentration at which a decrease in growth of the test microorganism occurred in comparison with a control were determined. The above mentioned compound I was tested.

[4] = tested on: Trichophyton mentagrophytes ATCC 9129; experiment: Fungistatic activity, serial dilution test; type: cell-based; settings: ATCC9129, 2 to 4 days at 26° C.
Protocol: as §1

[5] = tested on: Penicillium notatum CBS 19746; experiment: Fungistatic activity, serial dilution test; type: cell-based; settings: Penicillium chrysogenum, CBS19746, 2 to 4 days at 26° C.
Protocol: as §1

Rhodotorula rubra 49 = experiment: Fungistatic activity, serial dilution test; type: cell-based; settings: 2 to 4 days at 26° C.
Protocol: as §1

[6] = tested on: Candida albicans ATCC 10231; experiment: Fungistatic activity, serial dilution test; type: cell-based; settings: ATCC10231, 2 to 4 days at 26° C.
Protocol: as §1

[7] = tested on: Aspergillus niger ATCC 16404; experiment: Fungistatic activity, serial dilution test; type: cell-based; settings: ATCC16404, 2 to 4 days at 26° C.
Protocol: as §1

[8] = tested on: human hepatoma cells (HEP-G2); experiment: Inhibition of 14C-acetate incorporation in digitonin-precipitatable steroids in HEP-G2 cells; type: cell-based; settings: Homo sapiens; for percent change in 14C-acetate incorporation into sterols at 0.1 µM: HepG2, 10^-7 mol/l; for percent change in 14C-acetate incorporation into sterols at 0.01 µM: HepG2, 10^-8 mol/l
Protocol: I. Measurement of the inhibition of ^14 C-acetate incorporation in digitonin-precipitatable steroids:
After 3 days of culture, human hepatoma cells (HEP-G2) are stimulated for 16 hours in cholesterol-free medium. The substances to be tested (dissolved in dimethyl sulphoxide, final concentration 0.1%) are added during this stimulation phase. After the addition of 200 μmol/l of 2-^14 C-acetate, the mixture is then reincubated at 37° C. for a further 2 hours.
The cells are detached and the sterol esters are hydrolyzed and, after extraction, sterols are precipitated using digitonin. The ^14 C-acetate incorporated into digitonin-precipitatable sterols is determined by scintillation measurement.
The investigation of the inhibitory action was carried out at test concentrations of 10^-7 mol/l and 10^-8 mol/l. The test results of the following compounds A to AG of the general formula I are indicated at these test concentrations by way of example: […]

[9] = Toxic effects in the mouse after oral administration; type: in vivo; settings: oral 100 mg/kg, once daily for 4 days
Text: The compounds A to I appeared to be non-toxic at the curative dose.

[10] = tested on: 2,3-epoxysqualene-lanosterol cyclase; experiment: In vivo effect in the rat after oral administration: 2,3-epoxysqualene level in plasma; parameters: species or system rat (male Wistar); settings: 5 hours after administration
Protocol: II. Measurement of the in vivo effect in the rat after oral administration
The inhibition of the enzyme 2,3-epoxysqualene-lanosterol cyclase causes an increase in the 2,3-epoxy-squalene level in the liver and plasma. Therefore, the amount of 2,3-epoxysqualene formed therefore serves as a direct measure of the effectiveness in the whole animal. The determination is carried out by the following method:
The test substance suspended in 1.5% strength aqueous methylcellulose is administered via stomach tube to male Wistar rats (160-190 g body weight). 5 hours after administration, blood is obtained retroorbitally from the venous plexus. Plasma is extracted by the method of Bligh and Dyer (Canad. J. Biochem. Physiol. 37, 912, [1959]), purified by means of a precolumn and then analyzed by means of HPLC. The peaks obtained are identified and quantified by means of calibration substances. An internal standard is used to check the reproducibility of the results.
The investigations were carried out using concentrations of 0.1 and 1.0 mg/kg. The results for the above mentioned substances A to M are compiled in the following Table by way of example: […]

[11] = tested on: Normal human epidermal keratinocytes (NHEK); experiment: Inhibition of cell proliferation of keratinocytes; type: cell-based; settings: read-out: percentage decrease in cell numbers
Protocol: V. Inhibition of cell proliferation
Normal human epidermal keratinocytes (NHEK) are cultured under sterile conditions in keratinocyte growth medium (Gibco) in a humidified, 5% CO2 -containing atmosphere. Cells of the third passage are inoculated at a density of 12,000 cells/ml.
After 24 hours, the test substance is added to the medium and the number of cells is determined after a further 48 hours. The results were calculated in comparison to a control and are indicated as the percentage decrease in cell numbers.
The proliferation-inhibiting action of the above mentioned compound A was tested in comparison to simvastatin at concentrations of 10^-6 to 10^-10 mol/l.

[12] = tested on: normolipaemic golden hamster; experiment: Lipid reduction in the normolipaemic golden hamster; type: in vivo; settings: 12 days, vs control group
Protocol: III. Lipid reduction in the normolipaemic golden hamster
Male golden hamsters are fed ad lib with a cholesterol-free hamster diet for 12 days. The substance to be tested is admixed to the feed in concentrations of 0.01 to 0.10%. At the end of the experimental period, the total cholesterol, the HDL fraction and also the VLDL+LDL fraction are determined by standard methods, a control group fed without test substance being used for comparison.
The hypolipidaemic activity of the above mentioned compound A was tested.

[13] = tested on: normolipaemic golden hamster; experiment: Determination of the lithogenic index in the normolipaemic golden hamster; type: in vivo; settings: 20 days
Protocol: IV. Determination of the lithogenic index in the normolipaemic golden hamster
The lithogenic index is a measure of susceptibility to gallstone formation and is defined as the […] in mol %. It was determined by the method of Carey and Small, described in J. Clin. Investig. 61, 998-1026 [1978]. The higher the lithogenic index, the higher the probability of gallstone formation. The determination of the lithogenic index was carried out as follows:
Male golden hamsters are fed ad lib with a cholesterol-free hamster diet for 20 days. The substance to be tested is admixed to the feed in concentrations of 0.01 to 0.1%. At the end of the experimental period, total cholesterol, the HDL fraction and also the VLDL+LDL fraction in the serum, and the bile acids, the cholesterol and the phospholipids in the bile are determined by standard methods.
The compound A described above was tested. The percentage decrease in the lithogenic index was determined relative to the control.

smooth muscle cell = settings: Cardiovasc. Drugs Ther. 5, Suppl. 3, 354 [1991]; cited from earlier work
laying hens = settings: FASEB Journal 4, A 533 [1990]; cited from earlier work
[14] = Gut 31, 348-350 [1990], Z. Gastroenterol. 29, 242-245 [1991]
[15] = read-out: Decrease in growth (lowest concentration)

## CC[C@H](C)C(=O)O[C@H]1C[C@H](O)C=C2C=C[C@H](C)[C@H](CC[C@@H](O)C[C@@H](O)CC(=O)O)[C@H]21 [pravastatin]
[1]; [14]
  cholesterol concentration in the bile / lithogenic index: can cause a reduction of the cholesterol concentration in the bile
[1]; in vivo
  gallstone formation: do not lead to increased gallstone formation

## CCN(CC)CCOc1ccc(C(O)(Cc2ccc(Cl)cc2)c2ccc(C)cc2)cc1 (stereo not shown) [triparanol]
[2]
  toxic effects leading to withdrawal from the market: formation of cataracts, ichthyosis and alopecia

## O=C(c1ccc(Cl)cc1)N1CCC(Cc2ccc(C3=NCCO3)cc2)CC1 [I, 1-(4-chlorobenzoyl)-4-[4-(2-oxazolin-2-yl)benzyl]piperidine]
[3]
  MIC: 128 µg/mL (≈ 334 µM)
[3]; [15]
  minimal effective concentration: 64 µg/mL
[4]
  MIC: 512 µg/mL (≈ 1340 µM)
[5]
  MIC: 128 µg/mL (≈ 334 µM)
[5]; [15]
  minimal effective concentration: 64 µg/mL
Rhodotorula rubra 49
  MIC: 128 µg/mL (≈ 334 µM)
Rhodotorula rubra 49; [15]
  minimal effective concentration: 32 µg/mL
[6]
  MIC: 128 µg/mL (≈ 334 µM)
[6]; [15]
  minimal effective concentration: 64 µg/mL
[7]
  MIC: > 1020 µg/mL
[7]; [15]
  minimal effective concentration: 128 µg/mL
[8]
  percent change in 14C-acetate incorporation into sterols at 0.1 µM: -89%
  percent change in 14C-acetate incorporation into sterols at 0.01 µM: -75%
[9]
  toxic effects in the mouse: no toxic effects
[10]; 0.1 mg/kg oral
  2,3-Epoxysqualene concentration in plasma (rat): 3.41 µg/mL
[10]; 1.0 mg/kg oral
  2,3-Epoxysqualene concentration in plasma (rat): 8.41 µg/mL

## CCC(C)(C)C(=O)O[C@H]1C[C@@H](C)C=C2C=C[C@H](C)[C@H](CC[C@@H]3C[C@@H](O)CC(=O)O3)[C@H]21 [Simvastatin, simvastatin, reference compound]
[11]; 48 h
  inhibition at 0.0001 µM: 7%
  inhibition at 0.001 µM: 21%
  inhibition at 0.01 µM: 20%
  inhibition at 0.1 µM: 51%
  inhibition at 1 µM: 68%

## O=C(c1ccc(Cl)cc1)N1CCC(=Cc2ccc(C3=NCCO3)cc2)CC1 [A, 1-(4-chlorobenzoyl)-4-[4-(2-oxazolin-2-yl)benzylidene]piperidine]
[8]
  percent change in 14C-acetate incorporation into sterols at 0.1 µM: -81%
  percent change in 14C-acetate incorporation into sterols at 0.01 µM: -58%
[12]; 0.01% in feed
  HDL: -12.4%
  Total Cholesterol: -19.8%
  VLDL + LDL: -25.0%
[12]; 0.03% in feed
  HDL: -17.5%
  Total Cholesterol: -26.3%
  VLDL + LDL: -31.2%
[12]; 0.10% in feed
  HDL: -13.9%
  Total Cholesterol: -25.8%
  VLDL + LDL: -36.6%
[11]; 10^-6 mol/l, 48 hours
  inhibition at 1 µM: 72%
[11]; 10^-7 mol/l, 48 hours
  inhibition at 0.1 µM: 73%
[11]; 10^-8 mol/l, 48 hours
  inhibition at 0.01 µM: 70%
[11]; 10^-9 mol/l, 48 hours
  inhibition at 0.001 µM: 48%
[11]; 10^-10 mol/l, 48 hours
  inhibition at 0.0001 µM: 16%
[9]
  toxic effects in the mouse: no toxic effects
[10]; 0.1 mg/kg oral
  2,3-Epoxysqualene concentration in plasma (rat): 0.71 µg/mL
[10]; 1.0 mg/kg oral
  2,3-Epoxysqualene concentration in plasma (rat): 3.75 µg/mL
[13]; 0.01% in feed
  Lithogenic Index (percentage decrease relative to control): -24%
[13]; 0.03% in feed, n.s. = not significant
  Lithogenic Index (percentage decrease relative to control): -10%
[13]; 0.1% in feed
  Lithogenic Index (percentage decrease relative to control): -28%

## CC[C@H](C)C(=O)O[C@H]1C[C@@H](C)C=C2C=C[C@H](C)[C@H](CC[C@@H]3C[C@@H](O)CC(=O)O3)[C@H]21 [lovastatin]
Smooth muscle cell
  smooth muscle cell proliferation: inhibition of smooth muscle cell proliferation
Laying hens
  cholesterol content of eggs: lowering of the cholesterol content of eggs
[1]; [14]
  cholesterol concentration in the bile / lithogenic index: can cause a reduction of the cholesterol concentration in the bile
  gallstone formation: do not lead to increased gallstone formation
[1]; in particular in combination with ursodeoxycholic acid, Gastroenterology 102, A 319 [1992]
  dissolution of gallstones: effectiveness

## O=C(C1CCCCC1)N1CCC(=Cc2ccc(C3=NCCO3)cc2)CC1 [G, 1-cyclohexanecarbonyl-4-[4-(2-oxazolin-2-yl)benzylidene]piperidine]
[8]
  percent change in 14C-acetate incorporation into sterols at 0.1 µM: -80%
  percent change in 14C-acetate incorporation into sterols at 0.01 µM: -45%
[10]; 0.1 mg/kg oral
  2,3-Epoxysqualene concentration in plasma (rat): 0.36 µg/mL
[10]; 1.0 mg/kg oral
  2,3-Epoxysqualene concentration in plasma (rat): 0.31 µg/mL

## O=C(c1ccc(Cl)cc1)N1CCC(=Cc2ccc(C3=NCCO3)cc2)C1 [K, 1-(4-chlorobenzoyl)-3-[4-(2-oxazolin-2-yl)benzylidene]pyrrolidine]
[8]
  percent change in 14C-acetate incorporation into sterols at 0.1 µM: -90%
  percent change in 14C-acetate incorporation into sterols at 0.01 µM: -56%
[10]; 0.1 mg/kg oral
  2,3-Epoxysqualene concentration in plasma (rat): 0.0 µg/mL
[10]; 1.0 mg/kg oral
  2,3-Epoxysqualene concentration in plasma (rat): 4.14 µg/mL

## O=C(c1ccc(C(F)(F)F)cc1)N1CCC(Cc2ccc(C3=NCCO3)cc2)CC1 [H, 4-[4-(2-oxazolin-2-yl)benzyl]-1-(4-trifluoromethylbenzoyl)piperidine]
[8]
  percent change in 14C-acetate incorporation into sterols at 0.1 µM: -86%
  percent change in 14C-acetate incorporation into sterols at 0.01 µM: -62%
[9]
  toxic effects in the mouse: no toxic effects
[10]; 0.1 mg/kg oral
  2,3-Epoxysqualene concentration in plasma (rat): 1.70 µg/mL
[10]; 1.0 mg/kg oral
  2,3-Epoxysqualene concentration in plasma (rat): 9.15 µg/mL
